Measured values: EP2884284A1, “Dry diagnostic reagent” (priority 2013, dated 2015)

What was measured:
[1] = Moisture uptake, modified Ph. Eur. 5.11 hygroscopicity method; type: physicochemical; details: mass increase during 24h storage over saturated ammonium sulfate solution, 25°C, about 100 mg
Method: It determines the mass increase (% (m/mo)) during a 24h storage period over a saturated ammonium sulfate solution.

[2] = Moisture uptake over saturated K2SO4 solution at about 100% relative humidity; details: about 25°C, amorphous except for CaCl2
[3] = Hygroscopicity measurement by mass increase in a glove box at relative air humidity > 50%; type: physicochemical; details: 1.0g sample, 22.5°C to […], 96 hours, referring to the initial mass
Method: The hygroscopicity of compounds was measured by weighing (Mettler AT261 "Delta Range" balance) in the samples at the start of the experiment and at certain time points within a total period of 96 hours. The increase in mass (in %) was calculated for each sample as: (mt -mt0)/(mt0) × 100% [formula] • wherein mt is the mass of the sample at a certain time t and Mt0 is the mass of the sample at the start when placing it in the glove box.

citrated whole blood [4] = assay: ROTEM ex-tem assay, recalcification with freeze-dried pellets
Method: The compatibility with coagulation measurement was determined using the ROTEM® device. The measurement was conducted according to the respective automated ROTEM® sequence. 300 µL citrated whole blood (obtained from healthy individuals) were used for each measurement. The pipetting of the respective liquid reagents was performed according to the sequence or was skipped for the solid reagents. […] Coagulation was initiated using the tissue factor based ex-tem® reagent.
The ex-tem® assay was selected because of the tissue factor coagulation activation and the resulting short clotting times (CT). Therefore it was possible to investigate whether the freeze-dried products containing a high amount of solid would dissolve rapidly enough to assure complete recalcification and clotting times within a normal range.

[5] = Disintegration and dissolution time of lyophilisates, adjusted Ph. Eur. 7.4 oral lyophilisates method; type: physicochemical; details: lyophilisate about 1 mg from 12.5 % (m/V) solution, 300 µL TRIS buffer pH 7.4, about 22°C, no stirring
Method: Disintegration of substances described in Examples 5 and 6 were determined according to the method described in the European Pharmacopoeia 7.4 in monograph "tablets" section "oral lyophilisates". The disintegration time is acceptable if the oral lyophilisate disintegrates within 3 minutes in 200mL of "purified water R" at temperatures between 15°C and 25°C. Herein, disintegration is the loss of the overall structure, whereas dissolution means that the compound is completely dissolved.
This method was adjusted for the small volume lyophilisates which were used here (∼10 µL initial solution which corresponds to a lyophilysate mass of about 1 mg). Therefore the lyophilized product was added to 300 µL of TRIS buffer (adjusted pH 7.4 at 22°C) without any additional manipulation, e.g. shaking or stirring. In addition to the disintegration time the time until the whole product was completely dissolved, i.e. no visible particles detectable, has been determined at about 22°C (22.1 - 22.3 °C during the experiment).
. It was not possible to lyophilize pure amorphous calcium lactate due to rapid solidification and partially crystallization of the solution, which contained also 12.5%(m/V) amorphous calcium lactate. Table 9: Disintegration time and dissolution time for substances

[6] = Glass transition temperature Tg by differential scanning calorimetry; type: physicochemical
Method: Hydranal® Coulomat AG Oven served as a reagent. About 10 mg of the substance was used for an expected residual moisture between 5 - 10%(m/m) and about 50 - 80 mg were used for an expected moisture content […]. […]
Primary drying was carried out at Tinlet = -30° C / 30mtorr for 15h followed by secondary drying at 40°C / 30mtorr for 6h with a heating rate between the two steps of 0.3 °C/min. The glass transition temperature as well as the residual moisture content were measured after freeze drying for the respective substance.

[7] = Glass transition of the maximally frozen system Tg' by differential scanning calorimetry; details: solutions contained 12.5% (m/V) of the respective amorphous solid
Description: Further, the temperature Tg' is the glass transition temperature of the maximally frozen system, i.e. the glass transition of the amorphous phase within an ice matrix (from ultrapure water).

citrated whole blood [8] = assay: ROTEM EXTEM assay, recalcification with CLG solutions, tissue factor activation; details: CLG solution 396 mg/mL, 4 µL in 300 µL citrated whole blood, extem reagent, student t test p = 0.05, n = 10
Method: (§1) The influence of CLG on coagulation was determined using a ROTEM® device (TEM Innovations GmbH, Germany) and whole blood from healthy volunteers using either the EXTEM assay or the NATEM assay. Coagulation was therefore either initiated using the tissue factor based ex-tem® reagent (+recalcification) (TEM Innovations GmbH, Germany) or only by recalcification of the citrated whole blood sample. […]; ROTEM® reagent; TEM Innovations GmbH, Germany). Solutions of CLG were taken to show the influence of the substance independent of the dissolution behavior of the substance.
In detail, 300 µL citrated whole blood were taken, mixed with 4 µL of the respective solution of CLG of each concentration or of the star-tem@ reagent, and 16 µL of a 0.9% (m/V) NaCl-solution in ultrapure water. Blood clotting was initiated using the tissue factor based extem® reagent. […] Therefore it is possible to recalcify standard citrated whole blood and restore its clotting ability by using CLG solutions. This is depicted in Figure 2, wherein the data of a ROTEM experiment using two differently concentrated solutions of CLG (320 mg/mL and 396 mg/mL) were used. […]

[9] = Dissolution of the freeze-dried product on contact with a water surface; type: physicochemical; details: freeze-dried from c = 320 mg/mL
Description: In addition, no collapse or meltback could be detected when CLG was freeze-dried appropriately. CLG is, however, evidently metastable as a solid, i.e. amorphous.

citrated whole blood [10] = assay: ROTEM NATEM assay, recalcification only (contact pathway activation)
Method: as §1
In addition the clotting properties were investigated when coagulation of whole blood (using 300µL of citrated whole blood) was not initiated using tissue factor but only contact pathway activation, i.e. the citrated whole blood was recalcified using either the star-tem@ reagent or a CLG solution. The measurement was performed according to the automated ROTEM® sequence. Normal values were taken from the "expected values" section of the "instructions for use" sheet provided together with the star-tem@ reagent. A comparison was carried out with the star-tem@ reagent and the CLG solution with a concentration of 396 mg/mL of example 2. […] Table 1: Measurement values of the data determined in Example 2

[11] = Solubility, Ph. Eur. 5.11 procedure in TRIS buffer
Description: Table 3: Categorization of solubility according to Ph. Eur. 7.4

[12] = 300µL citrated whole blood, CLG solution 396 mg/mL or star-tem reagent, no tissue factor
[13] = freeze-dried CLG pellets, 4µmol equivalent, p = 0.05, n = 10
[14] = freeze-dried CLG pellets, lower amount of CLG, p = 0.05, n = 10

In the case of `[Ca+2].[Cl-].[Cl-]` [CaCl2, calcium chloride, reference compound], the “Ph. Eur. method Hygroscopicity” value [1] is reported as “CaCl2 = 113.9%(m/mo”, the “Uptake rate during 3h storage at 99.9 % rel. humidity (sat. K2SO4 sol.)” value [2] is reported as 1.000 ratio compared to CaCl2 and the mass increase [3] is reported as “over 20%”. For the same compound, the “behaviour of freeze-dried pellets (hygroscopicity)” value (citrated whole blood [4]; freeze-dried CaCl2 pellets) was “liquefied rapidly”.

With calcium lacto lactobionate [CLLB] the “Ph. Eur. method Hygroscopicity” value [1] was 19.18 %(m/mo, the Disintegration time [5] was <1 s and the “Dissolution time (mean ± sdv)” value [5] was 18 ± 4 s. For the same compound, the “Uptake rate during 3h storage at 99.9 % rel. humidity (sat. K2SO4 sol.)” value [2] was 0.357 ratio compared to CaCl2, the Tg ([6]; CLLB ratio 0, moisture content 14 %(m/m)) was 34,39 °C and the Tg ([6]; CLLB ratio 0, moisture content 5,196 %(m/m)) was 112,86 °C. The Tg ([6]; CLLB ratio 0, moisture content 10,151 %(m/m)) was 58,45 °C, the Tg ([6]; CLLB ratio 34.82, moisture content 0 %(m/m)) was 143.05 °C and the Tg ([6]; CLLB ratio 34.82, moisture content 4.44 %(m/m)) was 104.03 °C. For the same compound, the Tg ([6]; CLLB ratio 34.82, moisture content 7.26 %(m/m)) was 73.08 °C, the Tg ([6]; CLLB ratio 34.82, moisture content 9.86 %(m/m)) was 56.42 °C and the Tg ([6]; CLLB ratio 34.82, moisture content 11.82 %(m/m)) was 47.945 °C. The Tg ([6]; CLLB ratio 34.82, moisture content 14.60 %(m/m)) was 32.13 °C, the Tg ([6]; CLLB ratio 82.77, moisture content 0 %(m/m)) was 148.05 °C and the Tg ([6]; CLLB ratio 82.77, moisture content 5.19 %(m/m)) was 96.38 °C. For the same compound, the Tg ([6]; CLLB ratio 82.77, moisture content 6.35 %(m/m)) was 79.84 °C, the Tg ([6]; CLLB ratio 82.77, moisture content 6.93 %(m/m)) was 73.34 °C and the Tg ([6]; CLLB ratio 82.77, moisture content 8.00 %(m/m)) was 67.39 °C. It also gave a Tg ([6]; CLLB ratio 82.77, moisture content 14.49 %(m/m)) of 34.39 °C, a Tg ([6]; CLLB ratio %(m(CL)/m(CLB)) = 100, moisture content 0 %(m/m) (annealed)) of 140.08 °C and a Tg ([6]; CLLB ratio %(m(CL)/m(CLB)) = 100, moisture content 5.10 %(m/m)) of 82.46 °C. The Tg ([6]; CLLB ratio %(m(CL)/m(CLB)) = 100, moisture content 8.20 %(m/m)) was 64.81 °C, the Tg ([6]; CLLB ratio %(m(CL)/m(CLB)) = 100, moisture content 13.87 %(m/m)) was 30.65 °C and the “Glass transition of the frozen system (Tg')” value [7] was -15.58 °C.

For calcium lacto gluconate [CLG], the “clotting time (CT), difference to star-tem solution” value (citrated whole blood [8]) was “no significant (student t test; probability p = 0.05, n = 10) difference”, the “dissolution of the freeze-dried product” value [9] was “dissolved rapidly and completely after a few seconds” and the CFT (citrated whole blood [10]; [12]) was 183.00. The alpha (citrated whole blood [10]; [12]) was 54.67 °, the “difference between clotting time” value (citrated whole blood [10]; CLG solution 396 mg/mL versus star-tem reagent) was “around 3%” and the A10 (citrated whole blood [10]; amplitude after 10 minutes, 300µL citrated whole blood, CLG solution 396 mg/mL or star-tem reagent, no tissue factor) was 42.33. The MCF (citrated whole blood [10]; maximum clot firmness, 300µL citrated whole blood, CLG solution 396 mg/mL or star-tem reagent, no tissue factor) was 51.33, the mass increase [3] was < 0.1% and the “CT values, difference to reference” value (citrated whole blood [4]; freeze-dried CLG pellets versus 20µL star-tem reagent, ex-tem activation, p = 0.05, n = 10) was “no significant (p = 0.05; n = 10) difference”. The “amplitudes after 10 minutes reaction time (A10), difference to reference” value (citrated whole blood [4]; [13]) was “Neither the clot formation times (CFT) nor the amplitudes after 10 minutes reaction time (A10) of the 4µmol equivalent did significantly (p = 0.05, n = 10) differ from the reference”, the “clot formation times (CFT), difference to reference” value (citrated whole blood [4]; [13]) was “Neither the clot formation times (CFT) nor the amplitudes after 10 minutes reaction time (A10) of the 4µmol equivalent did significantly (p = 0.05, n = 10) differ from the reference” and the “A10, difference to reference” value (citrated whole blood [4]; [14]) was “slight but significant (p = 0.05, n = 10) variations”. For the same compound, the “CFT, difference to reference” value (citrated whole blood [4]; [14]) was “slight but significant (p = 0.05, n = 10) variations”, the glass transition ([6]; 1:1 (CL:CG) mixture, moisture content 5.71 % [m/m]) was ~87.20 °C and the glass transition ([6]; 2:1 (CL:CG) mixture, moisture content 6.52 % [m/m]) was “about 84.90 °C”. The Tg ([6]; CLG ratio 0, moisture content 0 %(m/m)) was 110.03 °C, the Tg ([6]; CLG ratio 0, moisture content 3.69 %(m/m)) was 79.16 °C and the Tg ([6]; CLG ratio 0, moisture content 9.86 %(m/m)) was 29.77 °C. For the same compound, the Tg ([6]; CLG ratio 0, moisture content 14.30 %(m/m)) was 14.26 °C, the Tg ([6]; CLG ratio 28.93, moisture content 0 %(m/m)) was 125.01 °C and the Tg ([6]; CLG ratio 28.93, moisture content 4.54 %(m/m)) was 92.14 °C. It also gave a Tg ([6]; CLG ratio 28.93, moisture content 5.71 %(m/m)) of 87.20 °C, a Tg ([6]; CLG ratio 28.93, moisture content 8.30 %(m/m)) of 61.35 °C and a Tg ([6]; CLG ratio 28.93, moisture content 9.91 %(m/m)) of 40.75 °C. The Tg ([6]; CLG ratio 50.44, moisture content 6.52 %(m/m)) was 84.9 °C, the Tg ([6]; CLG ratio 62.23, moisture content 0 %(m/m)) was 144.37 °C and the Tg ([6]; CLG ratio 62.23, moisture content 10.00 %(m/m)) was 58.91 °C. The Tg ([6]; CLG ratio 62.23, moisture content 10.37 %(m/m)) was 56.54 °C, the Tg ([6]; CLG ratio %(m(CL)/m(CLG)) = 100, moisture content 0 %(m/m) (annealed)) was 152.06 °C and the Tg ([6]; CLG ratio %(m(CL)/m(CLG)) = 100, moisture content 5.20 %(m/m)) was 112.86 °C. For the same compound, the Tg ([6]; CLG ratio %(m(CL)/m(CLG)) = 100, moisture content 10.15 %(m/m)) was 58.45 °C and the Tg ([6]; CLG ratio %(m(CL)/m(CLG)) = 100, moisture content […](m/m)) was 34.39 °C.

In the case of `O=C([O-])[C@H](O)[C@@H](O)[C@H](O[C@@H]1O[C@H](CO)[C@H](O)[C@H](O)[C@H]1O)[C@H](O)CO.O=C([O-])[C@H](O)[C@@H](O)[C@H](O[C@@H]1O[C@H](CO)[C@H](O)[C@H](O)[C@H]1O)[C@H](O)CO.[Ca+2]` [CLB, calcium lactobionate], the “Ph. Eur. method Solubility” value ([11]; 100mg substance, TRIS buffer isotonic pH = 7.4, 25.0°C, visual after 1 min. mixing and 15 min. storage) is reported as “very soluble”, the “Calculated solubility Cs” value ([11]; category limits of table 3 divided by Mr, 15 min) is reported as “Cs ≥ 1.325 mol/L” and the “Ph. Eur. method Hygroscopicity” value [1] is reported as 21.08 %(m/mo. For the same compound, the Disintegration time [5] was <1 s, the “Dissolution time (mean ± sdv)” value [5] was 13 ± 2 s and the “Uptake rate during 3h storage at 99.9 % rel. humidity (sat. K2SO4 sol.)” value [2] was 0.226 ratio compared to CaCl2. For the same compound, the “Glass transition of the frozen system (Tg')” value [7] was -13.27 °C.
